Assay results reported in ChEMBL document CHEMBL1153212, “P4 capped amides and lactams as HCV NS3 protease inhibitors with improved potency and DMPK profile” (Bioorg Med Chem Lett, 2010).

Experiments:
[1] = AUC in rat at 10 mg/kg, po; type: ADME, organism-based; set-up: dose 10 mg/kg, route oral; settings: plasma
[2] = Inhibition of HCV NS4A-tethered single chain NS3 serine protease by spectrophotometric assay; set-up: species or system Hepacivirus hominis
Hepatitis C virus = experiment: Antiviral activity against HCV assessed as inhibition of viral RNA replication; type: functional, Hepacivirus hominis
[3] = Selectivity for HCV NS4A-tethered single chain NS3 serine protease over human neutrophil elastase

Row | Structure (SMILES) | AUC [1] [µM·h] | Ki [2] [nM] | EC90 (Hepatitis C virus) [nM] | Ratio [3]
1 | C=CCNC(=O)C(=O)C(CCC)NC(=O)[C@@H]1[C@@H]2[C@H](CN1C(=O)[C@@H](NC(=O)N[C@@H](CN1CC3CCC(C3)C1=O)C(C)(C)C)C(C)(C)C)C2(C)C (stereo not given in full) | 0.53 | 8 | 60 | 613
2 | C=CCNC(=O)C(=O)C(CCC)NC(=O)[C@@H]1[C@@H]2[C@H](CN1C(=O)[C@@H](NC(=O)N[C@@H](CN1CCCOC1=O)C(C)(C)C)C(C)(C)C)C2(C)C (stereo not given in full) |  | 10 | 350 | 100
3 | C=CCNC(=O)C(=O)C(CCC)NC(=O)[C@@H]1[C@@H]2[C@H](CN1C(=O)[C@@H](NC(=O)N[C@@H](CN(C)C(C)=O)C(C)(C)C)C(C)(C)C)C2(C)C (stereo not given in full) |  | 37 | 550 | 150
4 | C=CCNC(=O)C(=O)C(CC1CC1)NC(=O)[C@@H]1[C@@H]2[C@H](CN1C(=O)[C@@H](NC(=O)N[C@@H](CN1CCC(C)(C)CC1=O)C(C)(C)C)C(C)(C)C)C2(C)C (stereo not given in full) | 3.52 | 15 | 70 | 870
5 | C=CCNC(=O)C(=O)C(CCC)NC(=O)[C@@H]1[C@@H]2[C@H](CN1C(=O)[C@@H](NC(=O)OC(C)(C)C)C(C)(C)C)C2(C)C (stereo not given in full) |  | 1500 |  | 
6 | C#CCCC(NC(=O)[C@@H]1[C@@H]2[C@H](CN1C(=O)[C@@H](NC(=O)N[C@@H](CN1CCC(C)(C)CC1=O)C(C)(C)C)C(C)(C)C)C2(C)C)C(=O)C(=O)NCC=C (stereo not given in full) | 0.49 | 5 | 60 | 210
7 | C=CCNC(=O)C(=O)C(CCC)NC(=O)[C@@H]1[C@@H]2[C@H](CN1C(=O)[C@@H](NC(=O)N[C@@H](CN(C)C(=O)C(F)(F)F)C(C)(C)C)C(C)(C)C)C2(C)C (stereo not given in full) |  | 42 |  | 75
8 | C=CCNC(=O)C(=O)C(CCC)NC(=O)[C@@H]1[C@@H]2[C@H](CN1C(=O)[C@@H](NC(=O)N[C@@H](CN1CCC(C)(C)CC1=O)C(C)(C)C)C1CCCCC1)C2(C)C (stereo not given in full) | 2.09 | 1.9 | 45 | 60
9 | C=CCNC(=O)C(=O)C(CCC)NC(=O)[C@@H]1[C@@H]2[C@H](CN1C(=O)[C@@H](NC(=O)N[C@@H](CN1CCC(C)(C)CC1=O)C(C)(C)C)C1Cc3ccccc3C1)C2(C)C (stereo not given in full) |  | 7 | 80 | 110
10 | C=CCNC(=O)C(=O)C(CCC)NC(=O)[C@@H]1[C@@H]2[C@H](CN1C(=O)[C@@H](NC(=O)N[C@@H](CN1Cc3ccccc3C1=O)C(C)(C)C)C(C)(C)C)C2(C)C (stereo not given in full) |  | 40 |  | 1500
11 | C=CCNC(=O)C(=O)C(CCC)NC(=O)[C@@H]1[C@@H]2[C@H](CN1C(=O)[C@@H](NC(=O)N[C@@H](CN1CCCNC1=O)C(C)(C)C)C(C)(C)C)C2(C)C (stereo not given in full) | 0.07 | 4.9 | 180 | 360
12 | C=CCNC(=O)C(=O)C(CCC)NC(=O)[C@@H]1[C@@H]2[C@H](CN1C(=O)[C@@H](NC(=O)N[C@@H](CN1CCCCC1=O)C(C)(C)C)C(C)(C)C)C2(C)C (stereo not given in full) |  | 14 | 350 | 320
13 | C=CCNC(=O)C(=O)C(CCC)NC(=O)[C@@H]1[C@@H]2[C@H](CN1C(=O)[C@@H](NC(=O)N[C@@H](CN1CCCC(C)(C)C1=O)C(C)(C)C)C(C)(C)C)C2(C)C (stereo not given in full) |  | 89 |  | 90
14 | C=CCNC(=O)C(=O)C(CCC)NC(=O)[C@@H]1[C@@H]2[C@H](CN1C(=O)[C@@H](NC(=O)N[C@@H](CN1CCCCC1)C(C)(C)C)C(C)(C)C)C2(C)C (stereo not given in full) |  | 2300 |  | 
15 | C=CCNC(=O)C(=O)C(CCC)NC(=O)[C@@H]1[C@@H]2[C@H](CN1C(=O)[C@@H](NC(=O)N[C@@H](CN1CCC(C)(C)CC1=O)C(C)(C)C)C(C)(C)C)C2(C)C (stereo not given in full) | 2.3 | 17 | 80 | 310
16 | C=CCNC(=O)C(=O)C(CCC)NC(=O)[C@@H]1[C@@H]2[C@H](CN1C(=O)[C@@H](NC(=O)N[C@@H](CN(C)C(=O)C1CC1)C(C)(C)C)C(C)(C)C)C2(C)C (stereo not given in full) |  | 91 |  | 280
17 | C=CCNC(=O)C(=O)C(CCC)NC(=O)[C@@H]1[C@@H]2[C@H](CN1C(=O)[C@@H](NC(=O)N[C@@H](CN1CCCCC1=O)C(C)(C)C)C1CCCCC1)C2(C)C (stereo not given in full) | 0.7 | 1.8 | 110 | 7
18 | C=CCNC(=O)C(=O)C(CCC)NC(=O)[C@@H]1[C@@H]2[C@H](CN1C(=O)[C@@H](NC(=O)N[C@@H](CN(C)C(=O)C(C)(C)C)C(C)(C)C)C(C)(C)C)C2(C)C (stereo not given in full) |  | 23000 |  | 
19 | C=CCNC(=O)C(=O)C(CCC)NC(=O)[C@@H]1[C@@H]2[C@H](CN1C(=O)[C@@H](NC(=O)N[C@@H](CN1CCCCC1=O)C(C)(C)C)C1Cc3ccccc3C1)C2(C)C (stereo not given in full) | 0.68 | 9 | 80 | 18
20 | CC(C)(C)NC(=O)N[C@H](C(=O)N1C[C@H]2[C@@H]([C@H]1C(=O)NC(CC1CCC1)C(=O)C(N)=O)C2(C)C)C(C)(C)C (stereo not given in full) [BOCEPREVIR] |  | 14 | 350 | 
21 | C=CCNC(=O)C(=O)C(CC1CCC1)NC(=O)[C@@H]1[C@@H]2[C@H](CN1C(=O)[C@@H](NC(=O)N[C@@H](CN1CCC(C)(C)CC1=O)C(C)(C)C)C(C)(C)C)C2(C)C (stereo not given in full) | 1 | 28 | 70 | 1900
22 | C=CCNC(=O)C(=O)C(CCCC)NC(=O)[C@@H]1[C@@H]2[C@H](CN1C(=O)[C@@H](NC(=O)N[C@@H](CN1CCC(C)(C)CC1=O)C(C)(C)C)C(C)(C)C)C2(C)C (stereo not given in full) |  | 19 | 80 | 850
23 | C=CCNC(=O)C(=O)C(CCC)NC(=O)[C@@H]1[C@@H]2[C@H](CN1C(=O)[C@@H](NC(=O)N[C@@H](CN1Cc3ccccc3CC1=O)C(C)(C)C)C(C)(C)C)C2(C)C (stereo not given in full) |  | 19 | 200 | 250
24 | C=CCNC(=O)C(=O)C(CCC)NC(=O)[C@@H]1[C@@H]2[C@H](CN1C(=O)[C@@H](NC(=O)N[C@@H](CN1CCCC1=O)C(C)(C)C)C(C)(C)C)C2(C)C (stereo not given in full) |  | 37 | 700 | 60
